Measurements from patent US11642352B2, “Methods of treating wandering in Lewy dody dementia” (WOOLSEY PHARMACEUTICALS, INC., priority 2020, dated 2023).
Structures can show the parent of a compound that is named as a salt. Where two headings read alike, the source gives them in different places.

Assays:
humans (AD) = details: cited from earlier work
[1] = system: triple transgenic mouse model (APP Swedish, MAPT P301L, and PSEN1 M146V); details: 10 mg/kg/day intraperitoneally; cited from earlier work
streptozotocin rats = details: intraperitoneally; cited from earlier work
triple transgenic mice = details: 10 or 12 months of age, administered in water at 30 mg/kg and 100 mg/kg; cited from earlier work
[2] = system: patients with wandering due to VaD; details: cited from earlier work
APP/PS1 transgenic mice = details: 5 and 10 mg/kg/day intraperitoneally; cited from earlier work
[3] = system: patients with Alzheimer's Dementia (AD) and frontotemporal dementia (FTD); assay: clinical trial of oral fasudil on frequency of wandering (Example 1); type: in vivo, human
Source text: Twenty patients, 10 with AD and 10 with FTD and an MMSE score ≤23, who are characterized wanderers, are enrolled into the study and observed for 2 weeks to confirm wandering behavior. […] The double-blind phase is followed by another treatment period of 6 weeks with the opposite treatment assignment (placebo or test drug taken with food).
The following inclusion criteria are applied:
1. Patients 50 years to 90 years of age.
2. Diagnosis of dementia (AD or VaD or mixed type) for at least 6 months.
3. For entering observation period and for entering open label treatment period: Wanders:
• a. Walks distinctly more than average as others of same age and ability AND/OR • b. Elopement behavior ≥3×per week in the opinion of the investigator For entering first double-blind treatment period: Wanders: • a. Walks less than half the mean distance measured in observation period AND/OR • b. Elopement behavior <1× per week in the opinion of the investigator AND/OR • c. Wandering has improved in the opinion of the Investigator. 4. For entering observation period and for entering open label treatment period: • a. MMSE between 10 and 25.
Wandering is measured in term of time in motion and distance traveled (measures of persistent wandering), attempted and successful boundary transgressions (measures of elopement) and patterns like pacing a lapping (indicative of persistent wandering and/or agitation or anxiety) using an electronic tracking device. A typical tracking device would use a combination of accelerometry with positioning, using technology like RFID or Bluetooth in an indoor environment and GPS outdoors. Other wayfinding, orientation and memory-associated wandering incidents are observed and recorded manually.
Wandering is measured in term of time in motion and attempted successful boundary transgression using an electronic tracking device. Other wayfinding, orientation and memory-associated wandering incidents are observed and recorded manually.
The Mini Mental State Exam (MMSE), Woolsey Wandering Questionnaire and Revised Algase Wandering Scale are administered at baseline and at the end of each treatment period. Any change in the use of antipsychotics or anxiolytics that could affect movement during the study is strongly discouraged.

[4] = in vivo, metabolite of fasudil; cited from earlier work
[5] = on drug as compared to placebo, 90 mg/day (30 mg TID)

For O=c1ncn2nc(Sc3ccc(F)cc3F)ccc2c1-c1c(Cl)cccc1Cl [Neflamapimod], the “primary endpoint of improving episodic memory” value (humans (AD); Phase 2) is listed as “failed”, the “tau in the cerebrospinal fluid” value (humans (AD); Phase 2) is listed as “reducing tau” and the Aβ deposition (humans (AD); humans) is listed as “no effect”.
In the case of O=S(=O)(c1cccc2cnccc12)N1CCCNCC1 [fasudil, Hexahydro-1-(5-isoquinolinesulfonyl)-1H-1,4-diazepine monohydrochloride hemihydrate], the “ß-amyloid plaques in vivo” value [1] is given as “reduce ß-amyloid plaques”, the “latency distance and quadrant time in the Morris water maze” value (streptozotocin rats) is given as “improved” and the spatial memory (triple transgenic mice) is given as “did not observe improvements”. The wandering symptoms ([2]; patient with Binswanger-type cerebral infarction, within weeks of beginning treatment) was “wandering symptoms disappeared”, the wandering symptoms ([2]; patient with sequelae of cerebral bleeding and multiple lacunar infarctions) was “Wandering symptoms disappeared quickly” and the “latency distance and quadrant time in the Morris water maze” value (APP/PS1 transgenic mice) was “improved”. For the same compound, the wandering ([3]; 90 mg/day (30 mg TID) oral, 6 weeks, AD and FTD patients) was “significant reduction in wandering”, the “mean increase in MMSE score, persistent wanderers” value [3, 5] was “greater than 3 points” and the “reduction of activity levels in persistent wanderers” value [3, 5] was “about 50%”. For the same compound, the “wayfinding errors and other problematic behaviors in sporadic wanderers” value ([3]; while on drug, 90 mg/day (30 mg TID)) was “significant reduction”.
For O=S(=O)(c1cccc2c(O)nccc12)N1CCCNCC1 [M3], the half-life [4] is given as “about 8 hours”.
